Laboratory results published in US11076595B2, “1-(n,n-disubstituted carbamoyl) 4-(substituted sulfonyl)triazolin-5-one derivative, 4-(n,n-disubstituted carbamoyl) 1-(substituted sulfonyl)triazolin-5-one derivative, and herbicide containing said derivative as active ingredient” (HOKKO CHEMICAL INDUSTRY CO., LTD., priority 2017, dated 2021).

Experiments:
Type in all cases: in vivo
Echinochloa crus-galli [1] = experiment: Test Example 12: herbicidal effect test by treatment during growing period in paddy field; settings: 120 g/10a; treatment seven days after sowing in flooded paddy pot; assessed 14 days after treatment
Summary of the method: (§1)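 Seeds (30 per species) are sown shallowly into fertilized, puddled paddy soil kept under ~3 cm of water in a greenhouse. One week later, compound formulated as an emulsifiable concentrate is applied dropwise to the water at 120 g a.i./10 are. After 14 days, dry weights give percent suppression against untreated controls.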

Lindernia pyxidaria [2] = experiment: as above; settings: 120 g/10a; treatment seven days after sowing in flooded paddy pot; assessed 14 days after treatment
Summary of the method: as §1

Monochoria vaginalis [3] = experiment: as above; settings: 120 g/10a; treatment seven days after sowing in flooded paddy pot; assessed 14 days after treatment
Summary of the method: as §1

Scirpus juncoides [4] = experiment: as above; settings: 120 g/10a; treatment seven days after sowing in flooded paddy pot; assessed 14 days after treatment
Summary of the method: as §1

Chenopodium album = experiment: Test Example 14: herbicidal effect test by foliage treatment in upland field; settings: 7 days after sowing, 120 g/10a, 14 days after treatment
Description: (§2) A pot having a size of 36 cm^2 was filled with field soil (alluvial soil) and after uniformly mixing the soil of the surface layer of 1 cm with 20 grains of each weed seed of crabgrass, Echinochloa crus-galli, Chenopodium album and Amaranthus viridis, the surface layer was pressed lightly. Seven Days after the sowing, an emulsifiable concentrate prepared according to Formulation Example 15 by using the compound shown in Table 12 below was diluted with water, and the water-diluted formulation was sprayed on the soil surface at a ratio of 100 liter per 10 are. The application rate of the active ingredient, by conversion, corresponded to 120 g per 10 are. Fourteen Days after the formulation treatment, the herbicidal effect was evaluated by the same criteria as in Test Example 11.

crabgrass = experiment: as above; settings: 7 days after sowing, 120 g/10a, 14 days after treatment
Description: as §2

Amaranthus viridis = experiment: as above; settings: 7 days after sowing, 120 g/10a, 14 days after treatment
Description: (§3) This test was performed with two replications per one formulation concentration plot, and 14 days after the formulation treatments, the weed suppression rate (%) was determined according to the following equation (Math. 2). Weed suppression rate (%)=(1−average dry weight (g) of plants in treated plots/average dry weight (g) of plants in untreated plots)×100 [Math. 2]
as §2

Echinochloa crus-galli [5] = experiment: as above; settings: 7 days after sowing, 120 g/10a, 14 days after treatment
Description: as §3, §2

Echinochloa crus-galli [6] = experiment: Test Example 11: herbicidal effect test by soil treatment in paddy field; settings: 120 g/10a active ingredient, 14 days after treatment
Summary of the method: (§4)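 Pre-emergence flooded-paddy test: the water-diluted emulsifiable concentrate, 120 g active ingredient per 10 are, was dripped into pots immediately after seeding, with water held at about 3 cm. Two replicate pots per rate; 14 days after treatment, plant dry weight versus untreated pots gave the weed suppression rate.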

Lindernia pyxidaria [7] = experiment: as above; settings: 120 g/10a active ingredient, 14 days after treatment
Summary of the method: as §4

Monochoria vaginalis [8] = experiment: as above; settings: 120 g/10a active ingredient, 14 days after treatment
Summary of the method: as §4

Scirpus juncoides [9] = experiment: as above; settings: 120 g/10a active ingredient, 14 days after treatment
Summary of the method: as §4

| Structure (SMILES) | Weed suppression rate (%) Echinochloa crus-galli (Echinochloa crus-galli [1]) [%] | Weed suppression rate (%) Lindemia pyxidaria (Lindernia pyxidaria [2]) [%] | Weed suppression rate (%) Monochoria vaginalis (Monochoria vaginalis [3]) [%] | Weed suppression rate (%) Scirpus juncoides (Scirpus juncoides [4]) [%] | herbicidal effect, Chenopodium album (Chenopodium album) [%] | herbicidal effect, Crabgrass (crabgrass) [%] | herbicidal effect, Amaranthus viridis (Amaranthus viridis) [%] | herbicidal effect, Echinochloa crus-galli (Echinochloa crus-galli [5]) [%] | Weed suppression rate (%) Echinochloa crus-galli (Echinochloa crus-galli [6]) [%] | Weed suppression rate (%) Lindemia pyxidaria (Lindernia pyxidaria [7]) [%] | Weed suppression rate (%) Monochoria vaginalis (Monochoria vaginalis [8]) [%] | Weed suppression rate (%) Scirpus juncoides (Scirpus juncoides [9]) [%] |
| --- | --- | --- | --- | --- | --- | --- | --- | --- | --- | --- | --- | --- |
| CC(C)N(C(=O)n1cnn(S(C)(=O)=O)c1=O)c1c(F)c(F)cc(F)c1F [Compound 11-17] | 100 | 70 | 100 | 100 | 30 | 60 | 100 | 70 | 100 | 90 | 80 | 100 |
| CC(C)N(C(=O)n1cnn(S(=O)(=O)C(C)C)c1=O)c1ccccc1F [Compound 11-49] | 100 | 90 | 90 | 90 | 80 | 90 | 90 | 80 | 90 | 80 | 80 | 90 |
| CC(C)N(C(=O)n1cnn(S(=O)(=O)C(C)C)c1=O)c1ccc(Cl)cc1F [Compound 11-67] | 100 | 90 | 90 | 90 | 60 | 90 | 60 | 90 | 100 | 90 | 90 | 90 |
| CC(C)N(C(=O)n1cnn(S(=O)(=O)C(C)C)c1=O)c1ccc(Cl)cc1Br [Compound 11-71] | 100 | 70 | 70 | 100 | 70 | 100 | 60 | 100 | 100 | 90 | 70 | 100 |
| Cc1cc(Cl)ccc1N(C(=O)n1cnn(S(=O)(=O)C(C)C)c1=O)C(C)C [Compound 11-74] | 90 | 80 | 80 | 90 | 80 | 90 | 90 | 80 | 90 | 80 | 80 | 90 |
| CC(C)N(C(=O)n1cnn(S(=O)(=O)C2CCCCC2)c1=O)c1ccc(C(F)(F)F)cc1F [Compound 11-311] |  |  |  |  | 30 | 100 | 60 | 90 |  |  |  |  |
| CCN(CC)S(=O)(=O)n1ncn(C(=O)N(c2ccc(F)cc2F)C(C)C)c1=O [Compound 11-1099] |  |  |  |  | 80 | 90 | 90 | 80 |  |  |  |  |
| CN(C(=O)n1cnn(S(C)(=O)=O)c1=O)c1ccc(F)cc1F [Compound 11-1125] | 90 | 70 | 60 | 30 |  |  |  |  | 90 | 60 | 60 | 60 |
